pIC50: −log10 of the molar value.
Legend:
[1] = target: T1, cholesterol ester transfer protein (CETP) (Homo sapiens, UniProt P11597); assay: CETP inhibition testing (transfer of 3H-cholesterol ester from human HD lipoproteins to biotinylated LD lipoproteins); assay type: biochemical; conditions: CETP partially purified from human plasma; 3H-cholesterol ester transfer HDL to biotin-LDL, 37° C., 18 h
T1 construct: CETP is obtained from human plasma in partially purified form by differential centrifugation and column chromatography; from tissue; host or cells: human plasma
T1 sequence (P11597 18-493): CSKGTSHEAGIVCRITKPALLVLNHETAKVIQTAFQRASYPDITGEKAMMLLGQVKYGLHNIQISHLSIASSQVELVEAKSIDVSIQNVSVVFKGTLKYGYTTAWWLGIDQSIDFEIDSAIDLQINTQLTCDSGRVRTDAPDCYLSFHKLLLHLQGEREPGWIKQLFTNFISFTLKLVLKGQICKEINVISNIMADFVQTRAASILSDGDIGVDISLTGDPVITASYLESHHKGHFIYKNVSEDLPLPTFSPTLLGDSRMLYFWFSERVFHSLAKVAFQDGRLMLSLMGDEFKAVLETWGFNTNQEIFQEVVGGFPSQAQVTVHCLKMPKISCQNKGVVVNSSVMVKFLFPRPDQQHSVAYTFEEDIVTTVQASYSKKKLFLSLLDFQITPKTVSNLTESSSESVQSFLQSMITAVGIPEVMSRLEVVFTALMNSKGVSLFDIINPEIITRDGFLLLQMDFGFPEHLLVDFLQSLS
Method: CETP is obtained from human plasma in partially purified form by differential centrifugation and column chromatography and used for the test. To this end, human plasma is adjusted to a density of 1.21 g per ml using NaBr and centrifuged at 4° C. for 18 h at 50,000 rpm. The bottom fraction (d>1.21 g/ml) is applied to a Sephadex®phenyl-sepharose 4B (Pharmacia) column, washed with 0.15 M NaCl/0.001 M trisHCl pH 7.4 and then eluted with distilled water. The CETP-active fractions are pooled, dialyzed against 50 mM Na acetate pH 4.5 and applied to a CM-Sepharose® (Pharmacia) column. The column is then eluted using a linear gradient (0-1 M NaCl). The pooled CETP fractions are dialyzed against 10 mM tris HCl pH 7.4 and then further purified by chromatography on a Mono Q® column (Pharmacia).
Obtainment of Radiolabelled HDL
50 ml of fresh human EDTA plasma is adjusted to a density of 1.12 using NaBr and centrifuged at 50,000 rpm for 18 h at 4° C. in a Ty 65 rotor. The upper phase is used to obtain cold LDL. The lower phase is dialyzed against 3×4 l of PDB buffer (10 mM tris/HCl pH 7.4, […], 1 mM EDTA, 0.02% NaN3). 20 μl of 3H-cholesterol (Dupont NET-725; 1 μC/μl dissolved in ethanol!) are then added per 10 ml of retentate volume and the mixture is incubated under N2 at 37° C. for 72 h. […]
To test the CETP activity, the transfer of ^3 H-cholesterol ester from human HD lipoproteins to biotinylated LD lipoproteins is measured.
The reaction is ended by addition of streptavidin-SPA® beads (Amersham) and the transferred radioactivity is determined directly in a liquid scintillation counter.
In the test mixture, 10 μl of HDL-^3 H-cholesterol ester (~50,000 cpm) are incubated at 37° C. for 18 h with 10 μl of biotin-LDL (Amersham) in 50 mM Hepes/0.15 M NaCl/0.1% bovine serum albumin/0.05% NaN3 pH 7.4 with 10 μl of CETP (1 mg/ml) and 3 μl of solution of the substance to be tested dissolved (in 10% DMSO/1% RSA). 200 μl of the SPA-streptavidin bead solution (TRKQ 7005) are then added, the mixture is incubated further for 1 h with shaking and then measured in the scintillation counter. […]

HDL cholesterol = assay: HDL rise in in vivo experiments (oral administration); set-up: species or system Syrian golden hamster; conditions: oral (stomach tube), 2 × 30 mg/kg/d
Method: In Vivo Activity of the Compounds According to the Invention
In experiments to determine the oral action on lipoproteins and triglycerides, test substance dissolved in DMSO and 0.5% Tylose suspended by means of a stomach tube are administered orally to Syrian golder hamsters from in-house breeding. To determine the CETP activity, blood (about 250 μl) is taken by retroorbital puncture before the start of the experiment. The test substances are then administered orally by means of a stomach tube. The control animals receive identical volumes of solvent without test substance. […]
Clotting is ended by incubation at 4° C. overnight, then centrifugation at 6000×g is carried out for 10 minutes. In the serum thus obtained, the content of cholesterol and triglycerides is determined with the aid of modified commercially available enzyme tests (cholesterol enzymatic 14366 Merck, triglycerides 14364 Merck). […]
100 μl of serum dilution are mixed with 100 μl of […] in 96-hole plates and incubated at room temperature for 10 minutes. The optical density is then determined at a wavelength of 492 nm using an automatic plate-reading apparatus. The triglyceride or cholesterol concentration contained in the samples is determined with the aid of a standard curve measured in parallel. […]

OCc1c(-c2ccc(F)cc2)cc(C2CCCC2)c(C(F)c2ccc(C(F)(F)F)cc2)c1-c1ccc(F)cc1 (stereo not shown) [Example 1]
pIC50 [1]: 7.05

CC(C)c1cc(-c2ccc(F)cc2)c(CO)c(-c2ccc(F)cc2)c1C(F)c1ccc(C(F)(F)F)cc1 (stereo not shown) [Example 3]
pIC50 [1]: 7.00
% HDL rise (HDL cholesterol): 21%

CC(C)c1cc(-c2ccc(F)cc2)c(CO)c(-c2ccc(F)cc2)c1C(=O)c1ccc(C(F)(F)F)cc1 [Example 4]
pIC50 [1]: 5.40

Reference: patent publication US6121330A, “5-Hydroxyalkyl substituted phenyls and their use in medicaments for the treatment of arteriosclerosis and hyperlipoproteinaemia” (Bayer Aktiengesellschaft, priority 1997, dated 2000)
